Measurements: US12419898B2, “Synergistic composition for maintenance of healthy balance of microflora” (Kimberly-Clark Worldwide, Inc., priority 2015, dated 2025)

System: L. crispatus and E. coli
Test: Therapeutic effect protocol: L. crispatus / E. coli co-culture in LAPT-g media supplemented with therapeutic agents
Assay type: cell-based
Settings: anaerobic, 37° C., measured 36 hours after inoculation, agent w/vol % as given per sample
Method: Therapeutic Effect Protocol
Colonies of L. crispatus and E. coli were prepared as follows. A colony of L. crispatus was transferred to 7 ml MRS broth and incubated anaerobically (using BD GasPak EZ anaerobe container system with indicator) at 37° C. without shaking for 18-20 hours. A colony of E. coli was transferred to 5 ml TSB broth and incubated aerobically (shaking at 100 rpm) at 37° C. for 18-20 hours.
Colonies were then inoculated as follows. Bacterial cultures were gently vortexed and 1 mL of each culture was transferred to a corresponding 2.0 mL micro-centrifuge tube and then centrifuged for two minutes at 14,500 rpm. The cultural supernatant was removed and the cell pellet was re-suspended in 1 mL of 0.95% (wt/vol %) saline. The re-suspended colony was then centrifuged for two minutes at 14,500 rpms and the supernatant was removed. For L. crispatus, the pellet was re-suspended in 1 mL of 0.95% saline to achieve ˜10^7-10^8 cfu/mL. For E. coli the pellet was re-suspended in 1 mL of 0.95% saline to achieve ˜10^8-10^9 cfu/mL.
Media were prepared as follows.
All of the ingredients in Table 1 were combined and the pH was adjusted to 6.5. The media were then autoclaved for 20 minutes at 125° C. To evaluate the effect of various therapeutic agents on the growth of bacteria the LAPT-g media, prepared as described above, was supplemented with various therapeutic agents to a final test concentration between 0.1 and 1.0%.
Five milliliters (5 mL) of each medium was transferred to a test tube in duplicates for subsequent inoculation. A master mixture of L. crispatus and E. coli, prepared as described above, was prepared in 1,000:1 ratio. Each (5 ml) test tube was inoculated with the master mixture to give 10^5-10^6 total CFU L. crispatus and 100-1,000 total CFU E. coli per tube.
To establish a negative control, one tube was vortexed and 100 μL was removed to determine the initial cell concentrations by serial dilutions and plating (2 plates per dilution). L. crispatus is selected on MRS agar plates incubated anaerobically at 37° C. for two days. E. coli is selected on TSA plates incubated aerobically at 37° C. for one day. The co-cultures were incubated in an anaerobic container with BD GasPaks at 37° C. for 36 hours.
The effect of the carbon source on the ratio of L. crispatus to E. coli was measured 36 hours after inoculation. The co-culture tube was vortexed and 100 μL was removed to determine the final cell concentrations by serial dilutions and plating (2 plates per dilution). L. crispatus is selected on MRS agar plates incubated anaerobically at 37° C. for two days. E. coli is selected on TSA plates incubated aerobically at 37° C. for one day.
Inventive samples were prepared by supplementing LAPT-g media, prepared as described above, with various therapeutic agents as described in Table 2, below. The therapeutic effect of the formulation was then measured using the assay described above in the Test Methods section above. The therapeutic effect is summarized below as the ratio of L. crispatus to E. coi.

Row | SMILES | L. crispatus/E. coli ratio
1 | OC[C@H]1O[C@@H](O[C@@H]2[C@@H](CO)OC(O)(CO)[C@H]2O)[C@H](O)[C@@H](O)[C@H]1O (mixture of isomers) [Sample 28, Lactulose] | 3.9
2 | O=CC[C@H](O)[C@H](O)CO [Sample 21, 2-Deoxy-D-Ribose] | 1.7
3 | CO[C@H]1O[C@H](CO)[C@@H](O)[C@H](O)[C@H]1O [Sample 22, α-Methyl-D-Glucoside] | 3
4 | OC[C@H]1O[C@@H]2O[C@H]3[C@H](O)[C@@H](O)[C@@H](O[C@H]4[C@H](O)[C@@H](O)[C@@H](O[C@H]5[C@H](O)[C@@H](O)[C@@H](O[C@H]6[C@H](O)[C@@H](O)[C@@H](O[C@H]7[C@H](O)[C@@H](O)[C@@H](O[C@H]1[C@H](O)[C@H]2O)O[C@@H]7CO)O[C@@H]6CO)O[C@@H]5CO)O[C@@H]4CO)O[C@@H]3CO [Sample 23, α-Cyclodextrin] | 6.5
5 | O=C[C@@H](O)[C@H](O)[C@H](O)CO [Sample 24, D-Arabinose] | 2.2
6 | O.O.OC[C@H]1O[C@H](O[C@H]2O[C@H](CO)[C@@H](O)[C@H](O)[C@H]2O)[C@H](O)[C@@H](O)[C@@H]1O [Sample 26, D-Trehalose] | 30.1
7 | O=C(O)CC(O)C(=O)O (centres unmarked) [Sample 29, Malic acid] | 30.7
8 | OCc1ccccc1O[C@@H]1O[C@H](CO)[C@@H](O)[C@H](O)[C@H]1O [Sample 32, Salicin] | 1.5
